Legend:
[1] = test system: production of PG 12 in vascular tissues; assay: Effect on production of PG I2 in vascular tissues (platelet lysate or aorta microsome); format: biochemical; conditions: pig's blood platelet lysate or microsome obtained from pig's aorta
[2] = test system: spontaneously hypertensive rats (SHR); assay: Blood-pressure lowering effect after oral administration to SHR; format: in vivo; conditions: administered orally, dose of 50 mg/kg
SHR = assay: Hypotensive activity after repeated administration (tolerance); format: in vivo, rats; conditions: administered to SHR for 15 consecutive days

Row | Structure (SMILES) | increase in the formation of PG I2 as compared with a control group [1] | decrease in the blood pressure [2] | duration of blood-pressure lowering effect [2] | potency of hypotensive activity during repeated administration (SHR)
1 | CCCCCCCCCC[C@H](CN(CC)C(=O)N1Cc2ccccc2C[C@H]1C(=O)O)C(=O)O [(3S)-2-[N-((2R)-2-carboxy-n-dodecyl)-N-ethylcarbamoyl]-1,2,3,4-tetrahydroisoquinoline-3-carboxylic acid] | 62% |  |  | 
2 | CCOC(=O)[C@H](CCc1ccccc1)CN(CC)C(=O)N1Cc2ccccc2C[C@H]1C(=O)O [(3S)-2-[N-((2R)-2-ethoxycarbonyl-4-phenyl-n-butyl)-N-ethylcarbamoyl]-1,2,3,4-tetrahydroisoquinoline-3-carboxylic acid] |  | about 35 mmHg | more than 6 hours | 
3 | CCCCCCCC[C@H](CN(CC)C(=O)N1Cc2ccccc2C[C@H]1C(=O)O)C(=O)OCC [calcium (3S)-2-[N-((2R)-2-ethoxycarbonyl-n-decyl)-N-ethylcarbamoyl] - 1,2,3,4-tetrahydro-isoquinoline-3-carboxylate] |  | about 35 mmHg | more than 6 hours | almost the same potency of its hypotensive activity

Reference: patent EP0061745A1, “Tetrahydroisoquinoline compounds, processes for preparation thereof and pharmaceutical composition containing them” (Tanabe Seiyaku Co., Ltd., priority 1981, dated 1982)
